Measured values from paper PMC2694832, “Pharmacokinetics, tissue distribution and mass balance of radiolabeled dihydroartemisinin in male rats” (Malaria Journal, 2009).

Experiment: Tissue distribution of [^14C] DHA
Assay type: in vivo, rats
Settings: for Distribution of radioactivity / % of total AUC / Half-lives of radioactivity / Tissue AUC of radioactivity / % total recovery: male rats i.v. 3 mg/20 μCi/kg; for % total recovery: all measured tissues
Experimental: Rats treated with a single [^14C] DHA dose of 3 mg/20 μCi/kg intravenously (5 rats per group) were anesthaetized by isofluorane and euthanized via cardiac puncture at 1, 6, 24, 48, 72, 96, and 192 hours, post-dosing. Blood, liver, brain, eyes, adrenals, muscle, lungs, heart, liver, kidneys, spleen, stomach, small intestine, large intestine, perirenal fat and bone marrow samples were removed from each animal by gross dissection. The gastrointestinal tract (GI) was separated into the stomach (oesophagus and stomach), small intestine, and large intestine. Contents were procured from each GI segment. After flushing with saline, these and other tissues were stored. Tissues were rinsed gently, but thoroughly with water to remove remaining traces of blood before storage. Dissecting instruments were also washed between tissue procurements to avoid cross-contamination.
For most of the tissues 20% (w/w) aqueous homogenates of the tissue were prepared. Aqueous homogenates of the faecal and GI content samples were also prepared. Metabolism cages were washed with a solution of 2% Count-off® and the volume was measured. Radioactivity in the plasma samples and in aliquots (approx. 0.02–1.0 ml) of urine and cage washings was determined. The blood cells (primarily erythrocytes), perirenal fat (approx. 0.2 g), bone marrow samples (approx. 0.1 ml), and approximately 300-μl aliquots of the homogenates of faeces, liver, kidneys, heart, brain, stomach and carcass were solubilized with SolvableTM tissue solubilizer (Perkin-Elmer Life and Analytical Sciences, Boston, MA). The homogenates of faeces, stomach content, and intestinal contents were extracted with 50% methanol for 24 hours. Aliquots of blood and pooled urine samples from selected intervals were also analysed for DHA content directly.
Total radioactivity in the collected tissue samples were quantified in duplicate. Weighed tissue aliquots (~0.2 g) were digested overnight in 2 ml of Solvable® tissue solubilizer (Perkin-Elmer Life and Analytical Sciences, Boston, MA) at 50°C. Coloured samples were decolourized by adding a maximum of 0.2 ml of 30% H2O2 for 30–60 minutes. Scintillation cocktail (Hyonic Fluor; Perkin-Elmer Boston. Massachusetts, USA) was then added and radioactivity determined in a Perkin-Elmer Tri-Carb 3100 TR scintillation spectrophotometer (Packard Instrument Co., Downers Grove, Illinois, USA). Faeces and intestinal contents were thoroughly homogenized before taking aliquots. Plasma was also analysed using the HPLC-ECD system to measure the concentration of unchanged DHA, as described by Li et al.

In the case of C[C@@H]1CC[C@H]2[C@@H]([14CH3])C(O)O[C@@H]3O[C@@]4(C)CC[C@@H]1[C@]32OO4 (stereo partly drawn) [[^14C] DHA, [16-^14C] DHA], the Distribution of radioactivity (Lungs, 24 hr) is reported as 398.52 ng equivalents/tissue gram, the Distribution of radioactivity (Lungs, 48 hr) is reported as 305.34 ng equivalents/tissue gram and the Distribution of radioactivity (Lungs, 72 hr) is reported as 303.10 ng equivalents/tissue gram. The Distribution of radioactivity (Lungs, 96 hr) was 236.70 ng equivalents/tissue gram, the Distribution of radioactivity (Lungs, 192 hr) was 221.64 ng equivalents/tissue gram and the “% of total AUC” value (Lungs) was 2.03%. The Half-lives of radioactivity (Lungs) was 86.19 ± 18.00 h, the “Tissue AUC of radioactivity” value (Lungs) was 85,916 ng·hr/g and the “Tissue AUC of radioactivity” value (Lungs, listed as [^14C]-dihydroartemisinin) was 85916 ± 12999 ng·h/g. For the same molecule, the “% of total AUC” value (Muscle) was 0.86%, the Half-lives of radioactivity (Muscle) was 64.45 ± 13.54 h and the “Tissue AUC of radioactivity” value (Muscle) was 36371 ± 6994 ng·h/g. The Distribution of radioactivity (Plasma, 1 hr) was 591.34 ng equivalents/tissue gram, the Distribution of radioactivity (Plasma, 6 hr) was 540.83 ng equivalents/tissue gram and the Distribution of radioactivity (Plasma, 24 hr) was 216.03 ng equivalents/tissue gram. The Distribution of radioactivity (Plasma, 48 hr) was 93.02 ng equivalents/tissue gram, the “% of total AUC” value (Plasma) was 0.49% and the “Tissue AUC of radioactivity” value (Plasma) was 20750 ± 1031 ng·h/g. For the same molecule, the Half-lives of radioactivity (Plasma, listed as [^14C]-dihydroartemisinin) was 75.57 ± 7.34 h, the Distribution of radioactivity (SI Content, 1 hr) was 46426.85 ng equivalents/tissue gram and the Distribution of radioactivity (SI Content, 6 hr) was 11387.30 ng equivalents/tissue gram. For the same molecule, the Distribution of radioactivity (SI Content, 24 hr) was 2283.61 ng equivalents/tissue gram, the Distribution of radioactivity (SI Content, 48 hr) was 633.61 ng equivalents/tissue gram and the Distribution of radioactivity (SI Content, 72 hr) was 575.05 ng equivalents/tissue gram. The Distribution of radioactivity (SI Content, 96 hr) was 176.57 ng equivalents/tissue gram, the Distribution of radioactivity (SI Content, 192 hr) was 250.03 ng equivalents/tissue gram and the “% of total AUC” value (SI Content) was 35.25%. The Half-lives of radioactivity (SI Content) was 28.73 ± 9.05 h, the “Tissue AUC of radioactivity” value (SI Content) was 1492988 ± 63053 ng·h/g and the Distribution of radioactivity (Small intestine (SI), 1 hr) was 8155.95 ng equivalents/tissue gram. For the same molecule, the Distribution of radioactivity (Small intestine (SI), 6 hr) was 3014.58 ng equivalents/tissue gram, the Distribution of radioactivity (Small intestine (SI), 24 hr) was 821.84 ng equivalents/tissue gram and the Distribution of radioactivity (Small intestine (SI), 48 hr) was 335.42 ng equivalents/tissue gram. For the same molecule, the Distribution of radioactivity (Small intestine (SI), 72 hr) was 389.72 ng equivalents/tissue gram, the Distribution of radioactivity (Small intestine (SI), 96 hr) was 235.61 ng equivalents/tissue gram and the Distribution of radioactivity (Small intestine (SI), 192 hr) was 304.12 ng equivalents/tissue gram. For the same molecule, the “% of total AUC” value (Small intestine (SI)) was 3.10%, the Half-lives of radioactivity (Small intestine (SI)) was 49.99 ± 34.89 h and the “Tissue AUC of radioactivity” value (Small intestine (SI)) was 131,264 ng·hr/g. For the same molecule, the “Tissue AUC of radioactivity” value (Small intestine (SI), listed as [^14C]-dihydroartemisinin) was 131264 ± 24631 ng·h/g, the Distribution of radioactivity (Spleen, 1 hr) was 4,387 ng equivalents/tissue gram and the Distribution of radioactivity (Spleen, 1 hr, listed as [^14C]-dihydroartemisinin) was 4387.40 ng equivalents/tissue gram. For the same molecule, the Distribution of radioactivity (Spleen, 6 hr) was 3,685 ng equivalents/tissue gram, the Distribution of radioactivity (Spleen, 6 hr, listed as [^14C]-dihydroartemisinin) was 3684.97 ng equivalents/tissue gram and the Distribution of radioactivity (Spleen, 24 hr) was 3,061 ng equivalents/tissue gram. The Distribution of radioactivity (Spleen, 24 hr, listed as [^14C]-dihydroartemisinin) was 3061.40 ng equivalents/tissue gram, the Distribution of radioactivity (Spleen, 48 hr) was 4,216 ng equivalents/tissue gram and the Distribution of radioactivity (Spleen, 48 hr, listed as [^14C]-dihydroartemisinin) was 4216.03 ng equivalents/tissue gram. The Distribution of radioactivity (Spleen, 72 hr) was 4446.65 ng equivalents/tissue gram, the Distribution of radioactivity (Spleen, 96 hr) was 4464.57 ng equivalents/tissue gram and the Distribution of radioactivity (Spleen, 192 hr) was 5,170 ng equivalents/tissue gram. The Distribution of radioactivity (Spleen, 192 hr, listed as [^14C]-dihydroartemisinin) was 5170.22 ng equivalents/tissue gram, the “% of total AUC” value (Spleen) was 14.58% and the Half-lives of radioactivity (Spleen) was 114.02 ± 57.67 h. The “Tissue AUC of radioactivity” value (Spleen) was 617,495 ng·hr/g, the “Tissue AUC of radioactivity” value (Spleen, listed as [^14C]-dihydroartemisinin) was 617495 ± 410768 ng·h/g and the Distribution of radioactivity (Stomach Content, 1 hr) was 36.03 ng equivalents/tissue gram. For the same molecule, the Distribution of radioactivity (Stomach Content, 6 hr) was 6289.79 ng equivalents/tissue gram, the Distribution of radioactivity (Stomach Content, 24 hr) was 22.45 ng equivalents/tissue gram and the Distribution of radioactivity (Stomach Content, 48 hr) was 98.12 ng equivalents/tissue gram. For the same molecule, the Distribution of radioactivity (Stomach Content, 72 hr) was 18.69 ng equivalents/tissue gram, the Distribution of radioactivity (Stomach Content, 96 hr) was 11.76 ng equivalents/tissue gram and the Distribution of radioactivity (Stomach Content, 192 hr) was 343.37 ng equivalents/tissue gram. For the same molecule, the “% of total AUC” value (Stomach Content) was 0.53%, the Half-lives of radioactivity (Stomach Content) was 16.75 ± 16.30 h and the “Tissue AUC of radioactivity” value (Stomach Content) was 22362 ± 98089 ng·h/g. The Distribution of radioactivity (Stomach, 1 hr) was 1366.22 ng equivalents/tissue gram, the Distribution of radioactivity (Stomach, 6 hr) was 932.33 ng equivalents/tissue gram and the Distribution of radioactivity (Stomach, 24 hr) was 464.21 ng equivalents/tissue gram. The Distribution of radioactivity (Stomach, 48 hr) was 342.30 ng equivalents/tissue gram, the Distribution of radioactivity (Stomach, 72 hr) was 337.48 ng equivalents/tissue gram and the Distribution of radioactivity (Stomach, 96 hr) was 229.69 ng equivalents/tissue gram. For the same molecule, the Distribution of radioactivity (Stomach, 192 hr) was 218.27 ng equivalents/tissue gram, the “% of total AUC” value (Stomach) was 1.94% and the Half-lives of radioactivity (Stomach) was 72.58 ± 12.98 h. The “Tissue AUC of radioactivity” value (Stomach) was 82125 ± 13428 ng·h/g, the Distribution of radioactivity (Testis, 1 hr) was 624.14 ng equivalents/tissue gram and the Distribution of radioactivity (Testis, 6 hr) was 513.53 ng equivalents/tissue gram. For the same molecule, the Distribution of radioactivity (Testis, 24 hr) was 176.47 ng equivalents/tissue gram, the Distribution of radioactivity (Testis, 48 hr) was 155.78 ng equivalents/tissue gram and the Distribution of radioactivity (Testis, 72 hr) was 151.29 ng equivalents/tissue gram. For the same molecule, the Distribution of radioactivity (Testis, 96 hr) was 123.54 ng equivalents/tissue gram, the Distribution of radioactivity (Testis, 192 hr) was 141.04 ng equivalents/tissue gram and the “Tissue AUC of radioactivity” value (Testis) was 48249 ± 6078 ng·h/g. The Half-lives of radioactivity (Testis, listed as [^14C]-dihydroartemisinin) was 86.24 ± 40.68 h, the Half-lives of radioactivity (Total Amounts line) was 69.03 ± 22.13 h and the “Tissue AUC of radioactivity” value (Total Amounts line) was 4234952.00 ng·h/g. The “% total recovery” value (1 hr) was 34.57%, the “% total recovery” value (6 hr) was 34.10% and the “% total recovery” value (24 hr) was 8.51%. For the same molecule, the “% total recovery” value (48 hr) was 6.50%, the “% total recovery” value (72 hr) was 6.28% and the “% total recovery” value (96 hr) was 4.51%. For the same molecule, the “% total recovery” value (192 hr) was roughly 5.53%, the “radioactivity in whole blood higher than in plasma” value (throughout the period measured, rats i.v. 3 mg/20 μCi/kg) was 1.8–4.6 fold and the “total radioactivity found in the content of small intestine” value (within the first hour after i.v. dosing, rats) was 53–86%.
